In US11377442B2, “Small molecule agonists and antagonists of NR2F6 activity” (ZANDER THERAPEUTICS, INC., priority 2016, dated 2022):

Columns and labels:
Type in all cases: cell-based
NR2F6 = molecular target: T1, NR2F6 (Homo sapiens, UniProt P10588); assay: NR2F6 agonist screening, Firefly signal cmpd/DMSO; conditions: for Firefly F4, cmpd/DMSO (mean): Table 14; for activity (in words): screening result
T1 construct: expressed in transfected cells; also transient transfection
T1 sequence (P10588 1-404): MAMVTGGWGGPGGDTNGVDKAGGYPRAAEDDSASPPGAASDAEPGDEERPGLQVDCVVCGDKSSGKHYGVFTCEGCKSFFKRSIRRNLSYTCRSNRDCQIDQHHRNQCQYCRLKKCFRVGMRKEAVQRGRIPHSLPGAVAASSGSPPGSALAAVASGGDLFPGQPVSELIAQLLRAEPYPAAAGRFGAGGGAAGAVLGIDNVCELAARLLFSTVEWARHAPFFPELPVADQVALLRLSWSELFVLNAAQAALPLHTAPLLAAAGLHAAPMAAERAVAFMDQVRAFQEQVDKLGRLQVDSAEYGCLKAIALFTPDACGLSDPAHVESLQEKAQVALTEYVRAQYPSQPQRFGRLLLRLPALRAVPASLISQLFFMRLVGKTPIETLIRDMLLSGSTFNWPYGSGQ

Renilla = Renilla signal in NR2F6 agonist screening, cmpd/DMSO; conditions: Renilla, Table 14, read-out: Renilla F4, cmpd/DMSO (mean)
HEK293 pGL4 = assay: Firefly_pGL signal, cmpd/DMSO (pGL4 control cells); conditions: Homo sapiens, HEK293, Table 14, read-out: Firefly pGL4, cmpd/DMSO (mean)

Structure (SMILES)	cytotox effect (decreasing both renilla and firefly activity) (NR2F6; NR2F6 agonist activity confirmation)	Firefly F4, cmpd/DMSO (mean) (NR2F6; 2 uM)	Firefly F4, cmpd/DMSO (mean) (NR2F6; 10 uM)	Firefly F4, cmpd/DMSO (mean) (NR2F6; 40 uM)	increase of firefly activity (NR2F6; at 10 uM) [times]	firefly signal over DMSO level (NR2F6; at 10 uM and 50 uM) [times]	fold induction at 2 µM (Renilla)	fold induction at 10 µM (Renilla)	fold induction at 40 µM (Renilla)	fold induction at 2 µM (HEK293 pGL4)	fold induction at 10 µM (HEK293 pGL4)	fold induction at 40 µM (HEK293 pGL4)	activity (in words) (NR2F6)
Cc1ccc(NC(=O)c2noc3c2CC(C)CC3)cc1C (stereo not drawn) [Compound E53]	strong cytotox effect	1.0	1.1	1.4	6	~3	0.9	0.8	1.1	1.5	1.4	1.6	–
CCn1cc2c(n1)c(=O)n(Cc1ccccc1)c(=O)n2CC(=O)Nc1ccc(Br)cc1 [Compound L1]	–	0.9	0.5	0.5	–	–	0.8	0.8	0.7	0.8	0.4	0.8	–
CCOC(=O)c1cnc2c(C)cc(C)cc2c1NCCCN(C)C [Compound Z54]	–	0.8	1.6	0.6	–	–	0.7	0.3	0.2	1.1	1.9	0.8	particularly good activity
Cc1cc(C)n2nc(CNS(=O)(=O)c3c(F)c(F)c(F)c(F)c3F)nc2n1 [Compound Z55]	–	1.1	0.8	2.0	–	–	0.8	0.3	0.1	0.8	0.7	2.3	particularly good activity
Cc1cc(C)nc(Sc2nnc(-c3ccc(C)c(S(=O)(=O)N4CCOCC4)c3)c3ccccc23)n1 [Compound Z56]	–	1.2	2.1	0.5	–	–	0.9	0.3	0.2	1.2	8.9	1.2	particularly good activity
CCOC(=O)c1cnc2c(C)cc(C)cc2c1NCc1ccccc1 [Compound Z74]	–	0.7	0.5	0.7	–	–	0.8	0.2	0.3	0.7	0.6	0.7	–
CCOC(=O)c1cnc2c(C)cc(C)cc2c1N1CCC(CO)CC1 [Compound Z79]	–	0.9	0.5	0.3	–	–	0.9	0.6	0.2	0.8	0.5	0.8	–
COC(=O)c1cnc2c(C)cc(C)cc2c1NCCCN(C)C [Compound Z81]	–	2.4	0.7	0.4	–	–	1.1	0.3	0.3	1.4	0.9	0.7	–
Cc1cc(C)c2ncc(C(N)=O)c(NCCCN(C)C)c2c1 [Compound Z83]	–	1.2	0.6	0.7	–	–	1	0.8	0.3	1	0.9	0.5	–
CCOC(=O)c1cnc2c(C)cccc2c1NCCCN(C)C [Compound Z90]	–	0.7	2.5	0.4	–	–	0.9	0.2	0.1	0.7	2.4	0.7	–
Cc1cc(C)n2nc(CNS(=O)(=O)c3ccc(Cl)cc3)nc2n1 [Compound Z91]	–	1.0	1.1	1.3	–	–	1.1	1.1	0.8	1	1	1.1	–
